Laboratory results published in PubChem BioAssay AID330 (DTP/NCI, 2004).
“And” between values parts separate entries of the source, which are not always exact repeats. Identical values can stand only once. Inconclusive results and toxic doses are left out. The calls were made as follows: active = survival T/C of 150% or more; inactive = T/C below 125% in these data.

Tested on: P388 leukemia ip, CD2F1 mice, survival T/C
Assay: NCI In Vivo Anticancer Drug Screen. Data for tumor model P388 Leukemia (intraperitoneal) in CD2F1 (CDF1) mice
Conditions: endpoint: median survival time, higher = longer survival
Method in brief: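 Mice carrying the transplanted tumor received test compound or vehicle. Survival was recorded in each group, and the value is the treated-group measurement divided by that of the vehicle-treated control group.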

[1] = dose: 25.0 mg/kg/injection, schedule: Q01DX009 (ip), vehicle: saline with Tween-80
[2] = dose: 50.0 mg/kg/injection, schedule: Q01DX009 (ip), vehicle: saline with Tween-80
[3] = dose: 100.0 mg/kg/injection, schedule: Q01DX009 (ip), vehicle: saline with Tween-80
[4] = dose: 25.0 mg/kg/injection, schedule: Q04DX002 (ip), vehicle: saline with Tween-80
[5] = dose: 60.0 mg/kg/injection, schedule: Q01DX005 (ip), vehicle: saline with Tween-80
[6] = dose: 120.0 mg/kg/injection, schedule: Q01DX005 (ip), vehicle: saline with Tween-80
[7] = dose: 240.0 mg/kg/injection, schedule: Q01DX005 (ip), vehicle: saline with Tween-80
[8] = dose: 50.0 mg/kg/injection, schedule: Q01DX009 (ip), vehicle: Klucel (hydroxypropylcellulose) (HPC)
[9] = dose: 100.0 mg/kg/injection, schedule: Q01DX009 (ip), vehicle: Klucel (hydroxypropylcellulose) (HPC)
[10] = dose: 50.0 mg/kg/injection, schedule: Q01DX005 (ip), vehicle: Klucel (hydroxypropylcellulose) (HPC)
[11] = dose: 100.0 mg/kg/injection, schedule: Q01DX005 (ip), vehicle: Klucel (hydroxypropylcellulose) (HPC)
[12] = dose: 200.0 mg/kg/injection, schedule: Q01DX009 (ip), vehicle: saline with Tween-80
[13] = dose: 100.0 mg/kg/injection, schedule: Q01DX001 (ip), vehicle: Klucel (hydroxypropylcellulose) (HPC)
[14] = dose: 200.0 mg/kg/injection, schedule: Q01DX001 (ip), vehicle: Klucel (hydroxypropylcellulose) (HPC)
[15] = dose: 400.0 mg/kg/injection, schedule: Q01DX001 (ip), vehicle: Klucel (hydroxypropylcellulose) (HPC)
[16] = dose: 50.0 mg/kg/injection, schedule: Q04DX002 (ip), vehicle: saline with Tween-80

Measured: T/C

Sc1ccccc1.[Ag]
inactive: [1] 97 % of control | [2] 105 % of control | [3] 96 % of control

N#Cc1nccnc1Cl
inactive: dose: 25.0 mg/kg/injection, schedule: Q01DX009 (ip), vehicle: other 95 % of control | dose: 25.0 mg/kg/injection, schedule: Q04DX003 (ip), vehicle: other 100 % of control | dose: 50.0 mg/kg/injection, schedule: Q01DX009 (ip), vehicle: other 100 % of control | dose: 50.0 mg/kg/injection, schedule: Q04DX003 (ip), vehicle: other 100 % of control | dose: 100.0 mg/kg/injection, schedule: Q01DX009 (ip), vehicle: other 100 % of control | dose: 100.0 mg/kg/injection, schedule: Q04DX003 (ip), vehicle: other 100 % of control

CN=C(N)N/N=C(C)/C(C)=C/c1ccccc1
inactive: [4] 104 % of control

Cc1cccc(/C=C/c2csnn2)n1
inactive: [5] 105 % of control | [6] 104 % of control | [7] 96 % of control

O=C1CCCCc2scc(C(=O)O)c2N1
inactive: dose: 100.0 mg/kg/injection, schedule: Q04DX003 (ip), vehicle: Klucel (hydroxypropylcellulose) (HPC) 104 % of control | dose: 200.0 mg/kg/injection, schedule: Q04DX003 (ip), vehicle: Klucel (hydroxypropylcellulose) (HPC) 111 % of control | dose: 400.0 mg/kg/injection, schedule: Q04DX003 (ip), vehicle: Klucel (hydroxypropylcellulose) (HPC) 102 % of control

O=c1[nH]cnc2ncccc12
inactive: dose: 12.5 mg/kg/injection, schedule: Q01DX009 (ip), vehicle: Klucel (hydroxypropylcellulose) (HPC) 104 % of control | dose: 25.0 mg/kg/injection, schedule: Q01DX009 (ip), vehicle: Klucel (hydroxypropylcellulose) (HPC) 110 % of control | [8] 112 % of control | [9] 87 % of control

CC12CCC3c4ccc(O)cc4CCC3C1CCC2(O)CN1CCCCC1 (centres undefined)
inactive: [10] 96 % of control | [11] 91 % of control

Clc1cccc2nncn12
inactive: dose: 50.0 mg/kg/injection, schedule: Q01DX001 (ip), vehicle: saline 98 % of control | dose: 100.0 mg/kg/injection, schedule: Q01DX001 (ip), vehicle: saline 102 % of control | dose: 200.0 mg/kg/injection, schedule: Q01DX001 (ip), vehicle: saline 100 % of control

CCCCCCCCCCCCCCC(O)C(=O)O (centres undefined)
inactive: [12] 89 % of control

Cc1cc2c(C)c(-c3ccccc3)c(=O)oc2c(C#N)c1C
inactive: dose: 15.0 mg/kg/injection, schedule: Q01DX005 (ip), vehicle: Klucel (hydroxypropylcellulose) (HPC) 104 % of control | dose: 30.0 mg/kg/injection, schedule: Q01DX005 (ip), vehicle: Klucel (hydroxypropylcellulose) (HPC) 95 % of control | dose: 60.0 mg/kg/injection, schedule: Q01DX005 (ip), vehicle: Klucel (hydroxypropylcellulose) (HPC) 90 % of control and 95 % of control

CC1CCCCC12C(C#N)(C#N)C2(C#N)C#N (centres undefined)
inactive: dose: 12.5 mg/kg/injection, schedule: Q04DX003 (ip), vehicle: Klucel (hydroxypropylcellulose) (HPC) 101 % of control | dose: 25.0 mg/kg/injection, schedule: Q04DX003 (ip), vehicle: Klucel (hydroxypropylcellulose) (HPC) 102 % of control

CCCc1cccc2c3c([nH]c12)C(CC)(CC(=O)O)OCC3 (centres undefined)
inactive: [13] 96 % of control | [14] 96 % of control | [15] 91 % of control

Cc1ccc(N=Cc2ccc(C=Nc3ccc(C)c(Cl)c3)cc2)cc1Cl
inactive: [8] 92 % of control | [9] 91 % of control | dose: 200.0 mg/kg/injection, schedule: Q01DX009 (ip), vehicle: Klucel (hydroxypropylcellulose) (HPC) 100 % of control

CC[n+]1ccc(C(=O)NN)cc1
inactive: dose: 12.5 mg/kg/injection, schedule: Q04DX002 (ip), vehicle: saline with Tween-80 97 % of control | [4] 99 % of control | [16] 105 % of control

C=C(C)C(=NC(C)(C)C)Nc1ccccc1Cl
inactive: [1] 101 % of control and 90 % of control | [2] 100 % of control and 119 % of control and 93 % of control | [3] 111 % of control and 115 % of control and 90 % of control | [12] 115 % of control and 98 % of control

C=C1C(=O)OC2C3OC(C)(CCC(O)C3COC(C)=O)CC(OC(=O)/C(=C/C)COC(C)=O)C12 (centres undefined)
inactive: dose: 0.75 mg/kg/injection, schedule: Q01DX009 (ip), vehicle: saline 116 % of control and 118 % of control | dose: 0.78 mg/kg/injection, schedule: Q01DX009 (ip), vehicle: Klucel (hydroxypropylcellulose) (HPC) 99 % of control | dose: 1.5 mg/kg/injection, schedule: Q01DX009 (ip), vehicle: saline 100 % of control and 111 % of control | dose: 1.56 mg/kg/injection, schedule: Q01DX009 (ip), vehicle: Klucel (hydroxypropylcellulose) (HPC) 113 % of control | dose: 3.0 mg/kg/injection, schedule: Q01DX009 (ip), vehicle: saline 101 % of control and 106 % of control | dose: 3.12 mg/kg/injection, schedule: Q01DX009 (ip), vehicle: Klucel (hydroxypropylcellulose) (HPC) 105 % of control | dose: 6.25 mg/kg/injection, schedule: Q01DX009 (ip), vehicle: Klucel (hydroxypropylcellulose) (HPC) 97 % of control

Nc1ncnc2c1ncn2C1OC(CO)CC1O (centres undefined)
inactive: dose: 9.37 mg/kg/injection, schedule: Q01DX009 (ip), vehicle: Klucel (hydroxypropylcellulose) (HPC) 109 % of control | dose: 18.75 mg/kg/injection, schedule: Q01DX009 (ip), vehicle: Klucel (hydroxypropylcellulose) (HPC) 104 % of control | dose: 37.5 mg/kg/injection, schedule: Q01DX009 (ip), vehicle: Klucel (hydroxypropylcellulose) (HPC) 110 % of control | dose: 75.0 mg/kg/injection, schedule: Q01DX009 (ip), vehicle: Klucel (hydroxypropylcellulose) (HPC) 112 % of control

CN1CCCc2cccc(c2)CCC1
inactive: dose: 12.5 mg/kg/injection, schedule: Q01DX005 (ip), vehicle: Klucel (hydroxypropylcellulose) (HPC) 98 % of control | dose: 25.0 mg/kg/injection, schedule: Q01DX005 (ip), vehicle: Klucel (hydroxypropylcellulose) (HPC) 100 % of control | [10] 99 % of control and 95 % of control

CC(=O)Nc1ccc(S(=O)(=O)n2c(=O)oc3cc(Cl)ccc32)cc1
inactive: [10] 86 % of control | [11] 99 % of control | dose: 200.0 mg/kg/injection, schedule: Q01DX005 (ip), vehicle: Klucel (hydroxypropylcellulose) (HPC) 86 % of control

COC(=O)C1(c2ccc(OC)cc2)NC(c2ccccc2)C2C(=O)N(c3ccc(OC)cc3)C(=O)C21 (centres undefined)
inactive: [5] 95 % of control | [6] 96 % of control | [7] 89 % of control

CNC(=S)N/N=C(\C)c1ccccn1
inactive: dose: 12.5 mg/kg/injection, schedule: Q01DX009 (ip), vehicle: saline with Tween-80 107 % of control and 117 % of control | [1] 116 % of control

S=c1nnn(C2CCCN2)[nH]1 (centres undefined)
inactive: [13] 100 % of control | [14] 97 % of control | [15] 100 % of control

CC12CCC(N3CCCC3)CC1=CCC1C2CCC2(C)C1CCCN2CCO (centres undefined)
inactive: dose: 12.5 mg/kg/injection, schedule: Q01DX001 (ip), vehicle: Klucel (hydroxypropylcellulose) (HPC) 99 % of control | dose: 25.0 mg/kg/injection, schedule: Q01DX001 (ip), vehicle: Klucel (hydroxypropylcellulose) (HPC) 99 % of control | dose: 50.0 mg/kg/injection, schedule: Q01DX001 (ip), vehicle: Klucel (hydroxypropylcellulose) (HPC) 103 % of control

CN=C(N)NN=C1c2ccccc2-c2ccccc21
inactive: [4] 97 % of control | [16] 101 % of control
